# According to patent US8063212B2, “Imidazolidinonyl aminopyrimidine compounds for the treatment of cancer” (Eli Lilly and Company, priority 2006, dated 2011):
# Read-outs that look alike come from different tables or passages of the source.
# Experiments:
# [1] = system: NClH460 murine xenografts; conditions: NClH460 murine xenograft; cited from earlier work
# [2] = in man; cited from earlier work
# A549 murine xenografts = conditions: A549 murine xenograft; cited from earlier work
# HCT116 murine xenografts = conditions: HCT116 murine xenograft; cited from earlier work
# Plk1 = target: T1, Plk1 (Homo sapiens, UniProt P53350); test: Plk1 Inhibition Assay; assay type: biochemical; conditions: Absolute IC50, 5.0 μM ATP, GST-Cdc25c (1-206) substrate, 60 min; MSR 3.6
# T1 construct: made in house; host or cells: baculovirus-infected Sf9 cells, treated with okadaic acid before harvest; the substrate was made in E. coli BL21
# T1 sequence (P53350 whole entry): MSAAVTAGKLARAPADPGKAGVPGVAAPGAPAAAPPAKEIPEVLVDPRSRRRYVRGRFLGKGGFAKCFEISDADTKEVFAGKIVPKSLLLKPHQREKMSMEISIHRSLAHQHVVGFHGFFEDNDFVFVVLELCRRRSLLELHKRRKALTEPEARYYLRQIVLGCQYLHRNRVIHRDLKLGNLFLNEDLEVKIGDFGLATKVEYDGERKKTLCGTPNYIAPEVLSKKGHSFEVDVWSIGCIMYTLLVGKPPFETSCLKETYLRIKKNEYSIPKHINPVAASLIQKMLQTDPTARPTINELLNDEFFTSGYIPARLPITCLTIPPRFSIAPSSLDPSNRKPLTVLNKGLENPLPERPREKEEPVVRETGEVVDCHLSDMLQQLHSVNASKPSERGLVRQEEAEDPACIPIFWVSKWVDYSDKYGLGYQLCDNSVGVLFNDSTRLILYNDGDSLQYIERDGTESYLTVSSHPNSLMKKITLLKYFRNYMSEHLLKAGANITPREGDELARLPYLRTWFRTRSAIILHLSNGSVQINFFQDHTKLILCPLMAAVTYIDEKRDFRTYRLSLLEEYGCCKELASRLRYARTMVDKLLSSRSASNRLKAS
# From the text: Human Plk1 cDNA, which may be obtained from a number of sources, such as Incyte (accession number: NM_005030), may be directly linked at one of its termini with a polynucleotide sequence expressing a His6 tag, such as the C-terminal FLAG-His6 tag, and inserted into an appropriate expression vector, such as a pFastBac™ vector (Invitrogen) and transfected into an appropriate system, such as baculovirus similar to what has been reported by Yue-Wei Qian, et al., Science, 282, 1701 (1998) for xPlkk1. If a viral expression system is used, then the virus (e.g., baculovirus bearing a Plk1-Flag-His6 tag polynucleotide construct) is infected into a culture of a suitable host cell, such as Sf9 cells. […]
# Plk1 kinase reactions contain Plk1-Flag-His6 tag fusion enzyme (0.2 ng/μL) in a buffer containing 50 mM HEPES, pH 7.3, 1.0 mM dithiothreitol, 5.0 μM ATP, 10 mM MgCl2, 0.01% TRITON® X-100, 0.4 μCi ^33P-ATP, and 0.06 μg/μL GST-Cdc25c (1-206) peptide. […] Wells are dried before addition of 40 μL of MicroScint™ 20 (Packard) and then counted on a Wallac MICROBETA® Jet. The percentage inhibition values from the 10-point concentration response data are subsequently analyzed, for example, using ACTIVITY BASE™ software (IDBS), using a 4-parameter logistic equation. Absolute IC50 values are calculated from the resulting curve fit.
# HCT116 cells = test: Antiproliferative Assay; assay type: cell-based; conditions: Homo sapiens, HCT-116, 72 hours, Alamar Blue, n=3, MSR 3.1
# Description: The effects of compounds on cell proliferation can be determined using cells and cell proliferation methods well-known in the art (Robert C. Squatrito et al., Gynecological Oncology, 58, 101-105, (1995)). For example, HCT116 cells, which may be obtained from the American Type Culture Collection, may be seeded at ˜2000 cells/well in 96-well plates and allowed to attach overnight in a humidified CO2 incubator at 37° C. Following the 20-24 hour incubation, half-log serially diluted compounds are added and the plates are returned to the incubator. After an appropriate length of exposure (e.g., 72 hours), cell proliferation is estimated using well-known methods. In one method, 10 μL of a tetrazolium salt, such as Alamar Blue™ is added to the cell plates. After an appropriate exposure to the dye, fluorescence (530 nm excitation, 580 nm emission) is determined. The resulting IC50 has an MSR of 3.1.
# HeLa Cells = test: pHH3(S10), Mitotic Cells, and DNA Content Assays; assay type: cell-based; conditions: Homo sapiens, 23 hours exposure
# Description: HeLa Cells from the American Type Culture Collection (ATCC) are plated at 200 cells/well in 96 well […] BIOCOAT™ plates, and are incubated in MEM (Minimum Essential Medium, e.g., GIBCO, catalog #11095) with 10% FBS (Fetal Bovine Serum) in 37° C., 5% CO2 for 24 hours. Cells are treated by adding compound (in 0.25% DMSO) to the medium, dosing at 10 points across the range […] to 0.0098 μM. After 23 hours exposure to the compounds, cells are fixed, for example with the PREFER™ fixative [Anatech LTD., Catalog #414] for 30 min then are permeablized with 0.1% TRITON® X100 in phosphate buffered saline (PBS) solution for 15 min. Cells are washed 3 times with PBS then digested with 50 μg/mL RNAse. Primary antibody, phosphohistone H3 (Upstate Cat#06-570), is added at 1:500 in PBS with 1% bovine serum albumin (BSA) to the cells over night at 4° C. After 3 PBS washes, cells are incubated with Alexa488 labeled secondary antibody (Invitrogen cat #A11008) for 1 hour at room temperature. Again they are washed 3 times with PBS, and then 15 μM propidium iodide (Molecular Probes cat #P3566) is added for 30 min to stain nuclei. Fluorescence Plates are scanned with ACUMEN EXPLORER™ [Laser-scanning fluorescence microplate cytometer (comprising of 488 nm argon ion laser excitation and multiple photomultiplier tube detection), manufactured by TTP LABTECH LTD] to measure phosphohistone H3, DNA content and mitotic cells as measured by DNA condensation. Image analysis are based on cellular fluorescent signals for identifying cells in different subpopulations. pHH3(S10) positive cells are identified by mean intensity at 500-530 nm above the threshold. Total intensity at 655-705 nm from propidium iodide/DNA is used to identify individual cells (cells with DNA content from 2N to 4N) and subpopulations in cell cycle (2N cells, 4N cells). Peak intensity at 575-640 nm is used to identify DNA condensation that is used as the marker to identify mitotic cells among 4N cells. […] The ECso is determined by curve fitting to a four parameter logistic for each output using ACTIVITY BASE™.
Compound,activity in preclinical model [1],clearance (CL) [2] [mL/min],dose limiting toxicity [2],activity in preclinical model (A549 murine xenografts),activity in preclinical model (HCT116 murine xenografts),IC50 (Plk1) [nM],IC50 (HCT116 cells) [nM],"EC50 (HeLa Cells; n=1, MSR 2.5, read-out: mitotic EC50) [nM]","EC50 (HeLa Cells; n=1, MSR 2.6, read-out: pHH3(s10) EC50) [nM]","EC50 (HeLa Cells; n=2, MSR 2.4, read-out: DNA content EC50) [nM]"
CC[C@@H]1C(=O)N(C)c2cnc(Nc3ccc(C(=O)NC4CCN(C)CC4)cc3OC)nc2N1C1CCCC1 [BI-2536],demonstrated activity,> 1000,dose limited by myelosupression,demonstrated activity,demonstrated activity,–,–,–,–,–
"CN(C)Cc1cnc(F)cc1-c1cccc2cc(-c3ccnc(NCCN4CCNC4=O)n3)sc12 [Example 4, 1-(2-{4-[7-(5-((Dimethylamino)methyl)-2-fluoropyridin-4-yl)benzo[b]thiophen-2-yl]pyrimidin-2-ylamino}ethyl)imidazolidin-2-one]",–,–,–,–,–,~25,44,22,24,35
